Reference: ChEMBL document CHEMBL4308836, “Inhibitors of Mutant Isocitrate Dehydrogenases 1 and 2 (mIDH1/2): An Update and Perspective” (J Med Chem, 2018)
Each block holds one molecule with its values, some of them ahead of it.

Columns and labels:
[1] = biological target: T1, Isocitrate dehydrogenase [NADP] cytoplasmic (Homo sapiens, UniProt O75874, R132C); assay: Inhibition of IDH1 R132C mutant (unknown origin) by kinase-Glo luminescent assay
[2] = biological target: T2, Isocitrate dehydrogenase [NADP], mitochondrial (Homo sapiens, UniProt P48735, R172K); assay: Inhibition of IDH2 R172K mutant (unknown origin) using alpha-KG as substrate after 90 mins in presence of NADPH by RF/MS analysis
[3] = biological target: T3, Isocitrate dehydrogenase [NADP] cytoplasmic (Homo sapiens, UniProt O75874, R132H); assay: Inhibition of IDH1 R132H mutant (unknown origin) using alpha-KG as substrate after 90 mins
[4] = biological target: T1, Isocitrate dehydrogenase [NADP] cytoplasmic; assay: Inhibition of IDH1 R132C mutant (unknown origin) using alpha-KG as substrate after 60 mins by resazurin based assay
[5] = biological target: T3, Isocitrate dehydrogenase [NADP] cytoplasmic; assay: Inhibition of N-terminal His-tagged IDH1 R132H mutant (unknown origin) expressed in Escherichia coli using alpha-KG as substrate assessed as decrease in D-2-HG production after 90 mins by quadrupole mass spectrometry
[6] = biological target: T1, Isocitrate dehydrogenase [NADP] cytoplasmic; assay: Inhibition of N-terminal His-tagged IDH1 R132C mutant (unknown origin) expressed in Escherichia coli using alpha-KG as substrate assessed as decrease in D-2-HG production after 90 mins by quadrupole mass spectrometry
[7] = biological target: T3, Isocitrate dehydrogenase [NADP] cytoplasmic; assay: Inhibition of IDH1 R132H mutant (unknown origin) assessed as reduction in NADPH consumption using alpha-KG as substrate incubated for 45 mins by diaphorase and resazurin dye based assay
[8] = biological target: T1, Isocitrate dehydrogenase [NADP] cytoplasmic; assay: Inhibition of IDH1 R132C mutant (unknown origin) assessed as reduction in NADPH consumption using alpha-KG as substrate incubated for 45 mins by diaphorase and resazurin dye based assay
[9] = biological target: T1, Isocitrate dehydrogenase [NADP] cytoplasmic; assay: Inhibition of IDH1 R132C mutant (unknown origin) catalytic activity using alpha-KG as substrate assessed as decrease in D-2-HG production after 45 mins by LC-MS/MS analysis
[10] = biological target: T3, Isocitrate dehydrogenase [NADP] cytoplasmic; assay: Inhibition of IDH1 R132H mutant (unknown origin) catalytic activity using alpha-KG as substrate assessed as decrease in D-2-HG production after 45 mins by LC-MS/MS analysis
[11] = biological target: T1, Isocitrate dehydrogenase [NADP] cytoplasmic; assay: Inhibition of IDH1 R132C mutant (unknown origin) using alpha-KG after 105 mins by NADPH depletion assay
[12] = biological target: T3, Isocitrate dehydrogenase [NADP] cytoplasmic; assay: Inhibition of IDH1 R132H mutant (unknown origin) using alpha-KG after 105 mins by NADPH depletion assay
[13] = biological target: T2, Isocitrate dehydrogenase [NADP], mitochondrial; assay: Inhibition of IDH2 R172K mutant (40 to end residues) (unknown origin) using alpha-KG as substrate after 120 mins in presence of NADPH by resazurin-based assay
[14] = biological target: T1, Isocitrate dehydrogenase [NADP] cytoplasmic; assay: Inhibition of IDH1 R132C mutant (unknown origin) assessed as reduction in NADPH consumption by diaphorase/resazurin-based assay
[15] = biological target: T3, Isocitrate dehydrogenase [NADP] cytoplasmic; assay: Inhibition of IDH1 R132H mutant (unknown origin) assessed as reduction in NADPH consumption by diaphorase/resazurin-based assay
[16] = biological target: T4, Isocitrate dehydrogenase [NADP], mitochondrial (Homo sapiens, UniProt P48735, R140Q); assay: Inhibition of IDH2 R140Q mutant (unknown origin) using alpha-KG as substrate after 60 mins in presence of NADPH by resazurin-based assay
[17] = biological target: T3, Isocitrate dehydrogenase [NADP] cytoplasmic; assay: Inhibition of IDH1 R132H mutant (unknown origin) assessed as reduction in NADPH consumption using alpha-KG as substrate by luminescence based assay
[18] = biological target: T2, Isocitrate dehydrogenase [NADP], mitochondrial; assay: Inhibition of IDH2 R172K mutant (unknown origin) using alpha-KG as substrate after 60 mins in presence of NADPH by resazurin-based assay
[19] = biological target: T4, Isocitrate dehydrogenase [NADP], mitochondrial; assay: Inhibition of IDH2 R140Q mutant in human U87MG cells assessed as reduction in 2-HG levels after 48 hrs […]; format: cell-based

T3 sequence (O75874 2-414 R132H limits assumed): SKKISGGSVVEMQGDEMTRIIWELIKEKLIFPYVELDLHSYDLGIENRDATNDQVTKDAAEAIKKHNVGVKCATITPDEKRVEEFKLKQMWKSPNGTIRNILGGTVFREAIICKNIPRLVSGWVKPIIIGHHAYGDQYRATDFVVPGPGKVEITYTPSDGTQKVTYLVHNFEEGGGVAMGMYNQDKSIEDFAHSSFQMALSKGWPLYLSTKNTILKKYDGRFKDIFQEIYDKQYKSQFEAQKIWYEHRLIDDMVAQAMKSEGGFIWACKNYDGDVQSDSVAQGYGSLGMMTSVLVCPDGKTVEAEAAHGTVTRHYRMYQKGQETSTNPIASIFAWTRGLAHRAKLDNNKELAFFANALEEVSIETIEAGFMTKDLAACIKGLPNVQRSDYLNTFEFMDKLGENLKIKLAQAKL
T2 sequence (P48735 40-452 R172K limits assumed): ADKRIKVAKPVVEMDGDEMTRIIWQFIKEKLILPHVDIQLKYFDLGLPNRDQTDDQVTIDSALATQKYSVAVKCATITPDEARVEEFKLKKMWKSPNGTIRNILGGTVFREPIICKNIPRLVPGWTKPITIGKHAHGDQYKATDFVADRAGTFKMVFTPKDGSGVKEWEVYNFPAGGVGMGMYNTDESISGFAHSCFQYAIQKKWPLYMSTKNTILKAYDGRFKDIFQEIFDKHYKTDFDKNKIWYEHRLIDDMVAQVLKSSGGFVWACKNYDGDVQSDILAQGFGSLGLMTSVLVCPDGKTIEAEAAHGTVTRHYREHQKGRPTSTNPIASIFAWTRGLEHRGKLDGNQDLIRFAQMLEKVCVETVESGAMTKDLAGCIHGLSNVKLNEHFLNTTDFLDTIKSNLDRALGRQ
T1 sequence (O75874 2-414 R132C limits assumed): as the sequence (O75874 2-414 R132H limits assumed) above, with H131C counted along it
T4 sequence (P48735 40-452 R140Q limits assumed): as the sequence (P48735 40-452 R172K limits assumed) above, with R101Q, K133R counted along it

Structure (SMILES): Cn1nccc1-c1cc2c(cc1F)Nc1ncc(F)cc1CN2C(=O)C1CCN(CC(F)(F)F)CC1
IC50 [1]: 0.0035 µM

Structure (SMILES): COc1cc2[nH]c(=O)c([C@H](C)Nc3ncc(C#N)c(OC)n3)cc2cc1Cl
IC50 [7]: < 0.01 µM
IC50 [8]: < 0.01 µM

Structure (SMILES): C[C@H](Nc1nccc(N2C(=O)C[C@@H](O)[C@H]2Cc2ccccc2)n1)c1cn(-c2ccc(Cl)cc2)cn1
IC50 [9]: < 0.1 µM
IC50 [10]: < 0.1 µM

Structure (SMILES): CCc1ccc(Cl)cc1-n1c(C=C(C)C)c(C(=O)N2CCNCC2)cc(-c2nc(-c3ccc(Cl)cc3)cs2)c1=O
IC50 [11]: < 0.3 µM
IC50 [12]: < 0.3 µM

Structure (SMILES): O=C(C1CCN(CC(F)(F)F)CC1)N1Cc2cc(F)cnc2Nc2cc(F)c(N3CC4(CCCOC4)C3)cc21
IC50 [1]: < 0.01 µM

Structure (SMILES): COCCO[C@H]1CC(C(=O)OC)[C@H](C(=O)N(c2cccc(F)c2)[C@H](C(=O)NC2CC(F)(F)C2)c2ccccc2Cl)C1 (stereo not given in full)
IC50 [14]: < 0.1 µM
IC50 [15]: < 0.1 µM

Structure (SMILES): COc1cc2c(cc1CCC(=O)O)nc(Nc1ccc(OC(F)(F)F)cc1)n2[C@@H]1C[C@H](C)CC(C)(C)C1
IC50 [17]: < 0.01 µM

Structure (SMILES): COc1cc(N[C@@H](C)c2cc3cc(Cl)c(OCc4ccccn4)cc3[nH]c2=O)ccc1C#N
IC50 [7]: < 0.01 µM
IC50 [8]: < 0.01 µM

Structure (SMILES): CNS(=O)(=O)c1cccc(NC(=O)c2nn(Cc3ccccc3)c(=O)c3ccccc23)c1
IC50 [7]: 0.59 µM
IC50 [8]: 0.05 µM

Structure (SMILES): c1ccc(Nc2nc(NC3CC3)nc(-c3ccccc3)n2)cc1
IC50 [16]: ≤ 0.1 µM
IC50 [18]: ≤ 0.1 µM
IC50 [19]: ≤ 0.1 µM

Structure (SMILES): O=C(NC1CC(F)(F)C1)[C@@H](c1ccccc1Cl)N(C(=O)[C@H](CO)Nc1ncccn1)c1cccc(F)c1
IC50 [14]: < 0.1 µM
IC50 [15]: < 0.1 µM

Structure (SMILES): COc1cc(N[C@@H](C)c2cc3cc(Cl)ccc3[nH]c2=O)ccc1C#N
IC50 [7]: < 0.01 µM
IC50 [8]: < 0.01 µM

Structure (SMILES): COc1cc(N[C@@H](C)c2cc3cc(Cl)c(OCCn4ccnc4C)cc3[nH]c2=O)ccc1C#N
IC50 [7]: < 0.01 µM
IC50 [8]: < 0.01 µM

Other lines, results leading:

IC50 [2]: 0.006 µM
IC50 [3]: 0.002 µM
Structure (SMILES): Cc1cc([C@@H](C)Nc2nc(N3C(=O)OC[C@@H]3C(C)C)c3cc[nH]c3n2)ncc1-c1ccnc(C(F)(F)F)c1

IC50 [4]: < 0.1 µM
Structure (SMILES): CC(C)[C@H]1CNC(=O)N1c1ccnc(NC2(c3cn(-c4ccc(Cl)cc4)cn3)CC2)n1

IC50 [5]: < 0.1 µM
IC50 [6]: < 0.1 µM
Structure (SMILES): C=CC(=O)N1CC(OCc2ccc([C@H](C)Nc3ncc4c(n3)N(CC(C)C)C(=O)OC4)cc2)C1

IC50 [4]: < 0.1 µM
Structure (SMILES): CC(C)[C@H]1COC(=O)N1c1ccnc(NC2(c3cn(-c4ccc(Cl)cc4)cn3)CC2)n1

IC50 [9]: < 0.1 µM
IC50 [10]: < 0.1 µM
Structure (SMILES): C[C@H](Nc1ncc(F)c(N2C(=O)[C@@H]3CC[C@H]2C3)n1)c1nc(-c2ccc(Cl)cc2)no1

IC50 [13]: < 0.05 µM
Structure (SMILES): FC(F)(F)c1cc(Nc2nc(NOCC3CC3)nc(-c3cccc(C(F)(F)F)n3)n2)ccn1

IC50 [3]: 0.028 µM
Structure (SMILES): C[C@H](O)[C@@H]1COC(=O)N1c1nc(N[C@H](C)c2cn(-c3ccc(F)cc3)cn2)nc2ccsc12

IC50 [16]: 0.36 µM
Structure (SMILES): [2H]C([2H])([2H])C([2H])(C([2H])([2H])[2H])C([2H])([2H])Nc1nc(Nc2ccnc(C(F)(F)F)c2)nc(-c2cccc(C(F)(F)F)n2)n1

IC50 [2]: 0.006 µM
IC50 [3]: 0.002 µM
Structure (SMILES): C[C@H](Nc1nc(N2C(=O)OC[C@@H]2[C@H](C)F)c2cc[nH]c2n1)c1cn(-c2ccc(Cl)cc2)cn1

IC50 [3]: 0.028 µM
Structure (SMILES): C[C@@H](Nc1nc(N2C(=O)OC[C@@H]2c2ccccc2)c2cn[nH]c2n1)c1cn(-c2ccc(Cl)cc2)cn1

IC50 [9]: < 0.1 µM
IC50 [10]: < 0.1 µM
Structure (SMILES): C[C@H](Nc1nccc(N2C(=O)CCC2(C)C)n1)c1cn(-c2ccc(Cl)cc2)cn1
